Source: publication PMC8147275, “Design, Synthesis, and Molecular Docking Study of New Tyrosyl-DNA Phosphodiesterase 1 (TDP1) Inhibitors Combining Resin Acids and Adamantane Moieties” (Pharmaceuticals, 2021)
“Also recorded” adds a separate entry of the source. Where two headings read alike, the source gives them in different places.

What was measured:
[1] = tested on: T98G glioma cells; assay: Cytotoxicity (MTT) alone and in combination with temozolomide; assay type: cell-based
Experimental: (§1) Since we used the T98G glioblastoma cell line for the first time for our experiments, we first attempted to perform the cytotoxicity study in a range of concentrations from 10 to 100 µM, as we did previously with the TDP1 inhibitory compounds when working with the other cell lines. However, the cytotoxicity at 50 and 100 µM of our compounds turned out to be rather high in the T98G cell line. We then measured the cytotoxicity of individual TDP1 inhibitors at 2.5, 5, 10, and 25 µM. The studied compounds were prepared as 50 mM stock solutions in DMSO and added to T98G glioma cells at 2.5 µM to 25 µM concentrations, either individually or in combination with 1000 or 2000 µM of TMZ. […] They were therefore discarded from the later cytotoxicity studies.
Individual TDP1 inhibitors were prepared as 50 mM stock solutions in DMSO and were added to the cells at 2.5, 5, 10, or 25 μM. Temozolomide was prepared as 200 mM stock solution in DMSO and was added at 1 mM or 2 mM concentrations, either alone or in combination with TDP1 inhibitors. T98G and SNB19 glioma cells were maintained in DMem/F12 medium supplemented with 10% foetal bovine serum, l-glutamine, and penicillin/streptomycin and were split at 10,000 cells/well into the 96-well plates for cytotoxicity experiments. The drugs or drug combinations were incubated with cells for 72 h, then the MTT reagent (3-(4,5-dimethylthiazol-2-yl)-2,5-diphenyltetrazolium bromide) was added for 4 h. The produced purple formazan dye reporting the activity of cellular oxireductases was dissolved overnight in 10% solution of acidified SDS and the absorbance was measured using a Tecan plate reader. Each concentration of individual substance or each drug combination was tested in triplicate. The data obtained were processed using MS Excel software and presented as histogram plots.

[2] = target: T1, TDP1 (Homo sapiens, UniProt Q9NUW8); assay: TDP1 assay: recombinant TDP1 with fluorescent biosensor (FAM/BHQ1), cell-free; assay type: biochemical; conditions: recombinant TDP1 1.5 nM, biosensor 50 nM, 26 °C
T1 construct: inferred from the pET 16B vector and purification on Ni-chelating resin; made in house
T1 sequence (Q9NUW8 whole entry): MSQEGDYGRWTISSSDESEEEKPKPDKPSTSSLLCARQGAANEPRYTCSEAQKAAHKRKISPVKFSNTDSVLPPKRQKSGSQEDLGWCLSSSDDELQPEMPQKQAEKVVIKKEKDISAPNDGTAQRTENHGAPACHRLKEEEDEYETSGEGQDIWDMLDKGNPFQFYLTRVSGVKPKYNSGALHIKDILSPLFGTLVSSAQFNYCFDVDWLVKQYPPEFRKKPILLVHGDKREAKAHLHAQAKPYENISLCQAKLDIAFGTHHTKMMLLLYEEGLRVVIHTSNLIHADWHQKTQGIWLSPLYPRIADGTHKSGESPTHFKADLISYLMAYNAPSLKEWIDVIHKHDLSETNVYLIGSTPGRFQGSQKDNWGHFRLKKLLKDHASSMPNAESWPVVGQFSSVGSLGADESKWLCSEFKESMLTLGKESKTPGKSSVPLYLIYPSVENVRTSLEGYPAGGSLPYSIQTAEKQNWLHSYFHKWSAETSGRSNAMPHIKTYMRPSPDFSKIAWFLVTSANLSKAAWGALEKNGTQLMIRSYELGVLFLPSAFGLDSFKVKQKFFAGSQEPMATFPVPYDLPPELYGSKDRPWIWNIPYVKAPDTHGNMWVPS
Experimental: The primary screening of the inhibitory activities against TDP1 was performed using an in vitro cell-free system involving the recombinant TDP1 and a fluorescent reporter probe as previously described.
The recombinant TDP1 was purified to homogeneity by chromatography on Ni-chelating resin and phosphocellulose P11 as previously described, using plasmid pET 16B-TDP1, kindly provided by Dr. K.W. Caldecott (University of Sussex, United Kingdom). The TDP1 activity measurements were carried out as described. Briefly, TDP1-biosensor with fluorofore (FAM) at the 5′-end and a fluorescence quencher (BHQ1) at the 3′-end at a final concentration of 50 nM were incubated in a 200 μL volume that contained TDP1 buffer (50 mM Tris-HCl pH 8.0, 50 mM NaCl, and 7 mM β-mercaptoethanol) supplemented with purified 1.5 nM TDP1 and various concentrations of inhibitor. Fluorescence measurements (Ex485/Em520 nm) were carried out during the linear phase of the reaction (from 0 to 8 min for TDP1) every 55 sec. The reactions were incubated at a constant temperature of 26 °C in a POLARstar OPTIMA fluorimeter (BMG LABTECH, GmbH). The influence of compounds was evaluated by comparing the fluorescence increase rate in the presence of compounds with that of DMSO control wells. The data were imported into the MARS Data Analysis 2.0 program (BMG LABTECH), and the IC50 values (the concentration of a compound required to reduce the enzyme activity by 50%) were calculated.

[3] = Solubility observations (stock solutions, solvents, cell growth medium); assay type: physicochemical; conditions: light microscopy
Experimental: as §1

[4] = target: T1, TDP1; conditions: Figure 2, known inhibitor; cited from earlier work

Row | IC50 [2] [µM] | Compound | further results
1 |  | Cn1nnc2c(C(N)=O)ncn2c1=O [TMZ, temozolomide] | cells surviving the treatment ([1]; TMZ alone 1000 µM, 72 h, MTT): ~ 95%; inhibition of cell viability ([1]; TMZ alone 2000 µM, 72 h, MTT): ~ 40%
2 | 2.3 ± 0.8 | CC(C)c1ccc2c(c1)CC[C@H]1[C@](C)(CNC(=S)C34CC5CC(CC(C5)C3)C4)CCC[C@]21C [Compound 8, N-abieta-8,11,13-trien-18-yladamantan-1-carbothioamide] | behaviour of stock solution dissolved in cell growth medium [3]: formed visible micelles
3 |  | CC(=O)C1=C(O)C=C2Oc3c(-c4csc(N/N=C/CC(C)CCC=C(C)C)n4)c(O)c(C)c(O)c3[C@@]2(C)C1=O (stereo partly shown) [A] | IC50 [4]: 0.0103 ± 0.0004 µM
4 | 1.4 ± 0.3 | CC(C)C1=CC2=CC[C@H]3[C@](C)(NC(=O)NC4C5CC6CC(C5)CC4C6)CCC[C@]3(C)C2CC1 (stereo partly drawn) [Compound 12, N-2-adamantyl-N’-[(1R,4aR,10aR)-7-isopropyl-1,4a-dimethyl-1,2,3,4,4a,4b,5,6,10,10a-decahydrophenanthren-1-yl]urea] | 
5 | 1.7 ± 0.6 | CC(C)C1=CC2=CC[C@H]3[C@](C)(NC(=O)NC45CC6CC(CC(C6)C4)C5)CCC[C@]3(C)C2CC1 (stereo partly drawn) [Compound 11, N-1-adamantyl-N’-[(1R,4aR,10aR)-7-isopropyl-1,4a-dimethyl-1,2,3,4,4a,4b,5,6,10,10a-decahydrophenanthren-1-yl]urea] | 
6 | 1.5 ± 0.5 | CC(C)c1ccc2c(c1)CC[C@H]1[C@](C)(CNC(=S)NC34CC5CC(CC(C5)C3)C4)CCC[C@]21C [Compound 3, N-abieta-8,11,13-trien-18-yl-N’-1-adamantylthiourea] | 
7 |  | CC(C)=CCC/C(C)=C/COc1ccc2c(-c3ccc(F)cc3)cc(=O)oc2c1 [C] | IC50 [4]: 0.5 µM
8 | 0.67 ± 0.19 | CC(C)c1ccc2c(c1)CC[C@H]1[C@](C)(CNC(=S)NC3C4CC5CC(C4)CC3C5)CCC[C@]21C (stereo partly shown) [Compound 4, N-abieta-8,11,13-trien-18-yl-N’-2-adamantylthiourea] | 
9 | 0.94 ± 0.18 | CC(C)c1ccc2c(c1)CC[C@H]1[C@](C)(CNC(=O)C34CC5CC(CC(C5)C3)C4)CCC[C@]21C [Compound 6, N-abieta-8,11,13-trien-18-yladamantan-1-carboxamide] | 
10 | 0.8 ± 0.2 | CC(C)c1ccc2c(c1)CC[C@H]1[C@](C)(CNC(=O)NC3C4CC5CC(C4)CC3C5)CCC[C@]21C (stereo partly shown) [Compound 2, N-abieta-8,11,13-trien-18-yl-N’-2-adamantylurea] | sensitization of glioma T98G cells to TMZ ([1]; combination with TMZ): most effective; melting point: 150 °C
11 |  | CC(C)CCCC(C)CCOC(=O)C12CC3CC(CC(C3)C1)C2 (stereo not shown) [E] | IC50 [4]: 0.92 µM
12 | 0.19 ± 0.03 | CC(C)c1ccc2c(c1)CC[C@H]1[C@](C)(CNC(=O)NC34CC5CC(CC(C5)C3)C4)CCC[C@]21C [Compound 1, N-abieta-8,11,13-trien-18-yl-N’-1-adamantylurea] | 
13 | 0.57 ± 0.16 | CC(C)c1ccc2c(c1)CC[C@H]1[C@](C)(NC(=O)NC34CC5CC(CC(C5)C3)C4)CCC[C@]21C [Compound 9, N-1-adamantyl-N’-[(1R,4aS,10aR)-7-isopropyl-1,4a-dimethyl-1,2,3,4,4a,9,10,10a-octahydrophenanthren-1-yl]urea] | 
14 | 0.59 ± 0.15 | CC(C)c1ccc2c(c1)CC[C@H]1[C@](C)(NC(=O)NC3C4CC5CC(C4)CC3C5)CCC[C@]21C (stereo partly drawn) [Compound 10, N-2-adamantyl-N’-[(1R,4aS,10aR)-7-isopropyl-1,4a-dimethyl-1,2,3,4,4a,9,10,10a-octahydrophenanthren-1-yl]urea] | 
15 | 1.8 ± 0.4 | CC(C)c1ccc2c(c1)CC[C@H]1[C@](C)(CNC(=O)C3C4CC5CC(C4)CC3C5)CCC[C@]21C (stereo partly shown) [Compound 7, N-abieta-8,11,13-trien-18-yladamantan-2-carboxamide] | behaviour of stock solution dissolved in cell growth medium [3]: formed visible micelles
16 | > 15 | CC(C)c1ccc2c(c1)CC[C@H]1[C@](C)(CNC(N)=O)CCC[C@]21C [Compound 5, N-abieta-8,11,13-trien-18-ylurea] | IC50 (TDP1) [2]: no activity; also recorded: failed to inhibit TDP1
